{"source": "patent US12544463B2", "about": "“Deuterium substituted positron emission tomography (PET) imaging agents and their pharmacological application” (Five Eleven Pharma Inc., priority 2017, dated 2026)", "key": {"[1]": {"settings": "cited from earlier work; for Biodistribution Blood / Biodistribution Bone / Biodistribution Brain / Biodistribution Liver / Biodistribution Muscle: normal male mice, Choi, 2009"}, "[2]": {"settings": "cited from earlier work"}, "[3]": {"settings": "humans, cited from earlier work"}, "[4]": {"molecular_target": "T1, Aβ plaques in AD brain tissue homogenates (Homo sapiens, UniProt P05067)", "T1 construct": "host or cells: AD brain tissue homogenate", "T1 sequence (P05067 672-713 limits assumed)": "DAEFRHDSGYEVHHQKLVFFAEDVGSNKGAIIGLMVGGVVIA", "settings": "cited from earlier work; for Ki: read-out: inhibition constant Ki"}, "[5]": {"molecular_target": "T2, vesicular monoamine transporter 2 (VMAT2) (Rattus norvegicus, UniProt Q01827)", "T2 construct": "Tissue homogenates of striatum (dissected from rat brain) were prepared; from tissue; host or cells: rat brain striatum homogenate", "T2 sequence (Q01827 whole entry)": "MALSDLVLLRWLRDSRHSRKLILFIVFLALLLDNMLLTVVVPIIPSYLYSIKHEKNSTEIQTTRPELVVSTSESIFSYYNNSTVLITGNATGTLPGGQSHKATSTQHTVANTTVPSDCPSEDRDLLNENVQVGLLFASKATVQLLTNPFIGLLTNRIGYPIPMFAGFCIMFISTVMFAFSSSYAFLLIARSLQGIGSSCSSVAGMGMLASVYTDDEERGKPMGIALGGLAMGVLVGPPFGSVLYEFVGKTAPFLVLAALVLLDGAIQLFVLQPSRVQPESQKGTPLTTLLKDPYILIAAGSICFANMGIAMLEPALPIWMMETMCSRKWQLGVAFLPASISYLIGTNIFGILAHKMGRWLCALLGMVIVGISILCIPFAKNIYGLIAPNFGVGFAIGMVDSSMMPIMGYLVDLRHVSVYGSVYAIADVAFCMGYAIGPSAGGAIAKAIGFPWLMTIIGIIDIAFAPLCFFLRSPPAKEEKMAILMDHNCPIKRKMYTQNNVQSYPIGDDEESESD", "assay": "In vitro binding assay for Ki determination, rat striatum homogenates", "settings": "for Ki: Avg ± SD, n = 3, read-out: Ki of cold competing drug; for Kd: value used in Cheng-Prusoff equation", "description": "Tissue homogenates of striatum (dissected from rat brain) were prepared in 50 mM of HEPES, pH 7.5, and 0.3 M of sucrose. Compounds were examined for their ability to compete for the binding of ^18F-AV-133 or ^18F-AV-133-D6 (^18F-Ia) (0.15-0.2 nM) at concentrations ranging from 10^−7 to 10^−12 M. The binding assays were performed in glass tubes (12×75 mm) in a final volume of 0.25 mL. […] After incubation for 90 min at room temperature, the bound ligand was separated from the free ligand by filtration through glass fiber filters. The filters were washed three times with 4 mL of ice-cold PBS buffer, pH 7.4 and the radioactivity on the filters was counted with a gamma counter (WIZARD^2, Perkin-Elmer)."}, "[6]": {"molecular_target": "T3, Aβ aggregates of human AD brain homogenates (Homo sapiens, UniProt P05067)", "T3 construct": "from tissue; host or cells: human Alzheimer's disease brain homogenate", "T3 sequence (P05067 672-713 limits assumed)": "as the sequence (P05067 672-713 limits assumed) above", "assay": "In vitro binding assay for Aβ aggregates of human AD brain homogenates", "settings": "for Ki: Avg ± SD, n = 3, read-out: Ki of cold competing drug", "description": "Competitive binding assays were performed in 12×75 mm borosilicate glass tubes. The reaction mixture contained 100 μL of AD brain homogenates (20-25 μg), 100 μL of [^18F]AV-45 or [^18F]AV-45-D3 (˜150,000 cpm), and 100 μL of competing compounds (10^−5 to 10^−10 M diluted serially in PBS containing 0.1% bovine serum albumin) in a final volume of […]. Nonspecific binding was defined in the presence of 1 μM of IMPY (6-iodo-2-(4′-dimethylamino-)phenyl-imidazo[1,2-a]pyridine) in the same assay tubes. The mixture was incubated for 60 min at room temperature, and the bound and the free radioactivity were separated by vacuum filtration through Whatman GF/B filters using a Brandel M-24R cell harvester, followed by washing with PBS buffer three times. The radioactivity on the filters was counted with a gamma counter (Wizard^2, Perkin-Elmer). Data were analyzed using the nonlinear least-square curve fitting program LIGAND to determine IC50."}}, "note": "Read-outs that look alike come from different tables or passages of the source.", "data": [{"smiles": "CNc1ccc(/C=C/c2ccc(OCCOCCOCCF)nc2)cc1", "note": "[^18F-AV-45]", "values": [{"measurement": "initial brain uptake relative to metabolite ^18F-AV-160", "setting": "[1]; mice, initial uptake", "value": 1.5, "unit": "fold"}, {"measurement": "Biodistribution Blood", "setting": "[1]; 2 min", "value": "2.51 ± 0.31", "unit": "% Dose/g"}, {"measurement": "Biodistribution Bone", "setting": "[1]; 2 min", "value": "1.33 ± 0.24", "unit": "% Dose/g"}, {"measurement": "Biodistribution Brain", "setting": "[1]; 2 min", "value": "7.33 ± 1.54", "unit": "% Dose/g"}, {"measurement": "Biodistribution Liver", "setting": "[1]; 2 min", "value": "16.3 ± 5.38", "unit": "% Dose/g"}, {"measurement": "Biodistribution Muscle", "setting": "[1]; 2 min", "value": "3.49 ± 0.33", "unit": "% Dose/g"}, {"measurement": "Biodistribution Blood", "setting": "[1]; 60 min", "value": "2.37 ± 0.27", "unit": "% Dose/g"}, {"measurement": "Biodistribution Bone", "setting": "[1]; 60 min", "value": "3.66 ± 0.30", "unit": "% Dose/g"}, {"measurement": "Biodistribution Brain", "setting": "[1]; 60 min", "value": "1.88 ± 0.14", "unit": "% Dose/g"}, {"measurement": "Biodistribution Liver", "setting": "[1]; 60 min", "value": "11.1 ± 1.83", "unit": "% Dose/g"}, {"measurement": "Biodistribution Muscle", "setting": "[1]; 60 min", "value": "1.33 ± 0.08", "unit": "% Dose/g"}, {"measurement": "Biodistribution Blood", "setting": "[1]; 120 min", "value": "1.96 ± 0.23", "unit": "% Dose/g"}, {"measurement": "Biodistribution Bone", "setting": "[1]; 120 min", "value": "6.48 ± 0.34", "unit": "% Dose/g"}, {"measurement": "Biodistribution Brain", "setting": "[1]; 120 min", "value": "1.80 ± 0.20", "unit": "% Dose/g"}, {"measurement": "Biodistribution Liver", "setting": "[1]; 120 min", "value": "8.96 ± 0.28", "unit": "% Dose/g"}, {"measurement": "Biodistribution Muscle", "setting": "[1]; 120 min", "value": "1.02 ± 0.07", "unit": "% Dose/g"}, {"measurement": "Biodistribution Blood", "setting": "[1]; 180 min", "value": "1.39 ± 0.13", "unit": "% Dose/g"}, {"measurement": "Biodistribution Bone", "setting": "[1]; 180 min", "value": "7.83 ± 1.08", "unit": "% Dose/g"}, {"measurement": "Biodistribution Brain", "setting": "[1]; 180 min", "value": "1.48 ± 0.15", "unit": "% Dose/g"}, {"measurement": "Biodistribution Liver", "setting": "[1]; 180 min", "value": "5.39 ± 0.31", "unit": "% Dose/g"}, {"measurement": "Biodistribution Muscle", "setting": "[1]; 180 min", "value": "0.78 ± 0.09", "unit": "% Dose/g"}, {"measurement": "parent remained in the plasma", "setting": "[2]; mice, 30 min after intravenous injection", "value": 30, "unit": "%"}, {"measurement": "biologic T1/2 in mouse plasma", "setting": "[2]; mouse plasma, estimated", "value": "less than 30 min"}, {"measurement": "decrease of plasma radioactivity", "setting": "[3]; within 10 min of the injection", "value": "approximately 80%"}, {"measurement": "decrease of plasma radioactivity", "setting": "[3]; within 20 min of the injection", "value": "approximately 90%"}]}, {"smiles": "Nc1ccc(C=Cc2ccc(OCCOCCOCCF)nc2)cc1", "note": "[AV-160]", "values": [{"measurement": "reduction of binding affinity vs nonradioactive AV-45", "setting": "[4]", "value": "≥ 20", "unit": "fold"}, {"measurement": "Ki", "setting": "[4]", "value": "54 ± 5", "unit": "nM"}]}, {"smiles": "[2H]C([2H])(F)C([2H])([2H])C([2H])([2H])Oc1cc2c(cc1OC)[C@H]1C[C@@H](O)[C@H](CC(C)C)CN1CC2", "note": "[Ia (AV-133-D6), (2R,3R,11R)-9-(3-Fluoropropoxy-[1,1,2,2,3,3-D6])-3-isobutyl-10-methoxy-2,3,4,6,7,11b-hexahydro-1H-pyrido[2,1-a]isoquinolin-2-ol]", "values": [{"measurement": "Ki", "setting": "[5]; hot ligand ^18F-AV-133-D6", "value": "0.33 ± 0.06", "unit": "nM"}, {"measurement": "Ki", "setting": "[5]; hot ligand ^18F-AV-133", "value": "0.32 ± 0.07", "unit": "nM"}, {"measurement": "Kd", "setting": "[5]", "value": 0.11, "unit": "nM"}]}, {"smiles": "CNc1ccc(/C=C/c2ccc(OCCOCCOCCF)nc2)cc1", "note": "[AV-45, reference compound]", "values": [{"measurement": "Ki", "setting": "[6]; hot ligand ^18F-AV-45-D3", "value": "3.24 ± 0.76", "unit": "nM"}, {"measurement": "Ki", "setting": "[6]; hot ligand ^18F-AV-45", "value": "4.02 ± 0.22", "unit": "nM"}, {"measurement": "Kd", "setting": "[6]; value used in Cheng-Prusoff equation", "value": 3.51, "unit": "nM"}, {"measurement": "Ki", "setting": "[4]", "value": "2.87 ± 0.17", "unit": "nM"}]}, {"smiles": "Nc1ccc(/C=C/c2ccc(OCCOCCOCC[18F])nc2)cc1", "note": "[^18F-AV-160]", "values": [{"measurement": "brain uptake", "setting": "[1]; mice, 2 min after injection", "value": 4.5, "unit": "% ID/g"}, {"measurement": "brain uptake", "setting": "[1]; mice, 60 min", "value": 1.8, "unit": "% ID/g"}, {"measurement": "share of the plasma metabolites", "setting": "[2]; mice, 30 min after injection", "value": "about 48%"}]}, {"smiles": "COc1cc2c(cc1OCCCF)CCN1C[C@@H](CC(C)C)[C@H](O)C[C@H]21", "note": "[AV-133, reference compound]", "values": [{"measurement": "Ki", "setting": "[5]; hot ligand ^18F-AV-133-D6", "value": "0.26 ± 0.03", "unit": "nM"}, {"measurement": "Ki", "setting": "[5]; hot ligand ^18F-AV-133", "value": "0.33 ± 0.02", "unit": "nM"}, {"measurement": "Kd", "setting": "[5]", "value": 0.11, "unit": "nM"}]}]}
